Measurements: patent US4055640A, “Compositions and methods for controlling the growth of bacteria, fungi and algae using certain derivatives of N-(2,2-dichlorovinyl)salicylamides” (Nippon Kayaku Co., Ltd., priority 1975, dated 1977)

How the values were obtained:
[1] = tested on: Rhizoctonia solani (damping-off of cucumber); test: Exterminating test on damping-off of cucumber (Experimental Example 3); format: in vivo; details: soil drench 50 ml per pot, 10 days; for pest or weed control at 1000 ppm: Rhizoctonia solani, soil, 240 h, 1,000 ppm, read-out: Percentage of healthy seedlings
Description: Exterminating test on damping-off of cucumber
The pots (diameter, 12 cm) were filled with field soil and then soil infected by adding Rhizoctonia solani in an amount of 5 grams per pot uniformly into the pots. Thereafter, 10 seeds of cucumber (variety: Azumamidori) were sown in each pot.
Eighty percent (80%) wettable powder of the present invention was diluted with water to obtain a suspension and each pot was drenched with the suspension in an amount of 50 milliliters. Then, the pots were transferred to the greenhouse. Fifty percent (50%) wettable powder of pentachloronitro benzene (hereinafter referred to as PCNB) on the market was used as a control and tested by the same method. After 10 days of the inoculation, degrees attacked by the pathogen were observed and a "Percentage of healthy seedlings" was calculated. The "Percentage of healthy seedlings" was calculated as follows: [formula]

green algae = test: Degree of propagation on slime test boards (Example 27); format: cell-based; details: same method, shaking culture for 2 days
Description: (§1) Zero point zero two (0.02) part of active compounds in the form of 10% water soluble concentrate which was prepared by Example 23 was added into 100 parts of Waxman's liquid medium. Peices of Wood iron (hereafter referred to as the slime test boards) were soaked into the Waxman's liquid medium. The bacteria which were gathered from circular water system were inoculated upon the Waxman's liquid medium and incubated at 27°-34° C by shaking culture for 2 days. The degree of propagation of the bacteria on the slime test boards was examined.
(§2) Thegrowth-inhibiting activity of active compounds against the fungi and the green algae was also examined by the same method as mentioned above.
(§3) The degree of propagation of the bacteria, fungi or green algae on the test boards is defined in terms of the following symbols.

[2] = tested on: bacteria gathered from circular water system; test: as above; format: cell-based; details: shaking culture for 2 days
Description: as §1, §2, §3

fungi = test: as above; format: cell-based; details: same method, shaking culture for 2 days
Description: as §1, §2, §3

[3] = tested on: seedling blight of rice plant (pathogen Fusarium sp. and Rhizoctonia sp.); test: Exterminating test on seedling blight of rice plant (Experimental Example 1); format: in vivo; details: 0.25g/box a.i., 5% dust mixed with soil; for Percentage of healthy seedlings at 0.25 g/box: soil, 408 h, read-out: Percentage of healthy seedlings
Description: Exterminating test on seedling blight of rice plant Nursery boxes (60 × 30 × 3 cm) were filled with soil which were contaminated with pathogen (Fusarium sp. and Rhizoctonia sp.) The dust in which the present compound was contained in a ratio of 5% by weight was added in the box in a ratio of 5 grams per box and mixed well with soil. Thereafter, seeds of rice plant (variety: Nihonbare) were sowed in drills at a rate of 0.3 liter per box and grown up in a lighting chamber at 17° C. After 7 days from the sowing, the boxes were carried out in the field. Furthermore, 10 days thereafter the observations were made. Four percent (4%) dust of 3-hydroxy-5-methyl isoxazol (hereinafter referred to as hydroxyisoxazol) on the market was used as a control and tested by the same method. The test results are shown in Table 2 with a "percentage of healthy seedlings". The percentage of healthy seedlings was calculated as follows: […]

Aspergillus niger = test: Region of growth-inhibition around treated cotton cloth (Example 26); format: cell-based; details: emulsifiable concentrate diluted 100 times
Description: (§4) The emulsifiable concentrates which were prepared by Example 20 were diluted with water 100 times to form an emulsion. A cloth of cotton was soaked into each emulsion for 2 minutes. The clothes were dried at room temperature and cut into a square of which a side was 1 cm long. Each kind of test bacteria and fungi was inoculated, separately, on plates of potato-agar and one square cloth placed on each of such plates. Test bacteria and fungi were cultivated at 28° C for 4 days. The width of the region of growth-inhibition which was formed a circumference of the cloth was measured.

Staphylococcus oureus = test: as above; format: cell-based; details: emulsifiable concentrate diluted 100 times
Description: as §4

Penicillium Citrinum = test: as above; format: cell-based; details: emulsifiable concentrate diluted 100 times
Description: as §4

Bacillus subtilis = test: as above; format: cell-based; details: emulsifiable concentrate diluted 100 times
Description: as §4

[4] = tested on: Fusarium wilt of cucumber; test: Exterminating test on Fusarium wilt of cucumber (Experimental Example 4); format: in vivo, Fusarium oxysporum f, cucumerinum; details: 500 ppm, soil drench 100 ml per pot, two weeks; for pest or weed control at 500 ppm: Fusarium, soil, 336 h, read-out: Percentage of healthy seedlings
Description: Exterminating test on Fusarium wilt of cucumber Twenty (20) grams of infected soil was added uniformly into each pot which was filled with steam sterilized field soil, then 18 seeds of cucumber (variety; Tokiwazibai) were sowed in each pot. Eighty percent (80%) wettable powder of the present invention was diluted with water to obtain a suspension, and each pot was drenched with the suspension in an amount of 100 ml. Fifty percent (50%) wettable powder of methyl-1-(butylcarbamoyl) 2-benzimidazol carbamate (hereinafter referred to as Benlate) on the market was used as a control and tested by the same method. After two weeks of planting, degrees attacked by the pathogen was observed and a "percentage of healthy seedlings" was calculated as follows: [formula]

[5] = tested on: Aspergillus niger, Penicillium citrinum, Cladosporium harbarum and chaetomium globosum; test: Degree of growth inhibition of fungi on treated beach plates (Example 25); format: cell-based; set-up: scale not given here; details: numerical rating, 2 weeks
Description: The emulsifiable concentrates which were prepared by Example 20 were diluted with water 400 times and 800 times to form emulsions.
(§5) The square plates of beach of which a side was 5 cm long and thickness was 5 mm were dipped into the emulsion for 2 minutes and dried for 24 hours at room temperature.
(§6) The square plates were placed on the surface of agar plates. The suspensions which contained spores of Aspergillus niger, Penicillium citrinum, Cladosporium harbarum and chaetomium globosum were respectively sprayed on the agar plates and the square plates.
The test fungi were cultivated in the incubator at the humidity of 95% and the temperature of 28° C for 2 weeks. The degree of growth inhibition is defined in terms of the following numerical ratings.

[6] = tested on: Xanthomonas citri (citrus canker); test: Exterminating test on citrus canker (Experimental Example 6); format: in vivo; details: for pest or weed control at 1000 ppm: Xanthomonas citri, 336 h, read-out: Effect Index, 1,000 ppm, 2 weeks after inoculation
Description: (§7) Exterminating test on citrus canker. 4-year-old summer orange seedlings, planted in unglazed pots having a diameter of 20 cm, were employed in this test. Eighty percent (80%) wettable powder of the present invention was diluted with water, and sprayed over the seedlings in an amount of 50 ml per pot. The leaves of the seedlings were inoculated Xanthomonas citri by means of a needle. After the inoculation, the seedlings were maintained in a moist chamber at 25° C for 24 hours. Then the pots were transferred into the greenhouse. Streptomycin 20% wettable powder was used as a control, and tested by the same method. After 2 weeks after the inoculation, degrees of disease attack were observed, and an "Effect Index" was calculated as follows: [formula]

summer orange seedlings = test: Phytotoxicity on summer orange seedlings (Experimental Example 6); format: in vivo; details: 1,000 ppm
Description: as §7

[7] = tested on: botrytis cinerea (gray mold); test: Exterminating test on gray mold of tomato (Experimental Example 5); format: in vivo; set-up: scale not given here; details: 48 hours after inoculation, kidney bean leaves
Description: Exterminating test on gray mold of tomato The seedlings of kidney beans (variety: Orient) of 5-6 leaves stage were employed in this test. Eighty percent (80%) wettable powder of the present invention was diluted with water and sprayed over the seedlings in an amount of 10 ml per pot. The leaves were cut from the plant at 24 hours after spraying, and placed in the petri dishes (12 cm in diameter). Thereafter disks (5 mm in diameter) were cut with a cork borer from potato dextrose agar on which the pathogen (botrytis cinerea) was cultured. The disks were placed on the leaves. The dishes were placed in such a moistural condition as to cause the pathogen to propagate. Thiophanate methyl 70% wettable powder on the market was used as a control and tested by the same method. After forty eight (48) hours after inoculation, diameters of the lesions were observed, and an "Effect Index" was calculated as follows; [formula]

[8] = tested on: seedlings of kidney beans (variety: Orient); test: Phytotoxicity on kidney beans (Experimental Example 5); format: in vivo
[9] = tested on: Aspergillus niger, Penicillium citrinum, Cladosporium harbarum and chaetomium globosum; test: Degree of growth inhibition of fungi on treated beach plates (Example 17); format: cell-based; set-up: scale not given here; details: numerical rating, 2 weeks
Description: The emulsifiable concentrates which were prepared by Example 10 were diluted with water 400 times and 800 times to form emulsions.
as §5, §6
The test fungi were cultivated in the incubator at the humidity of 95% and the temperature of 28° C for 2 weeks.
The degree of growth inhibition is defined in terms of the following numerical ratings.

[10] = tested on: cucumber seedlings (variety: Sagamihanjiro); test: Phytotoxicity on cucumber seedlings (Experimental Example 2); format: in vivo; details: 500 ppm
Description: (§8) The cucumber seeds (variety: Sagamihanjiro) were sown in pots (diameter 18 cm). Eighty percent (80%) wettable powder (contents of active compound: 80%) of the present invention was diluted with water to obtain a suspension. The suspension was sprayed over the cucumber seedlings of the stage of 3-4 leaves in an amount of 20 ml per pot. After 24 hours, these pots were inoculated by means of spray of spore suspension of Cladosporium cucumerinum. The thus-inoculated seedlings were placed in a moist chamber at 20° C for 24 hours. The pots were continuously kept in a greenhouse at 20° C. The following wettable powders on the market were used as controls.

[11] = tested on: Cladosporium cucumerinum (cucumber scab); test: Exterminating test on cucumber scab (Experimental Example 2); format: in vivo; set-up: scale not given here; details: 500 ppm, 5 days after inoculation
Description: Exterminating test on cucumber scab
as §8
70% wettable powder of 1,2-bis (3-methoxy carbonyl-2-thioureid) benzene (hereinafter referred to as "thiophanate methyl") on the market.
75% wettable powder of ethylene bis (dithiocarbamic acid) manganese (hereinafter referred to as "maneb") on the market. After 5 days of the inoculation, degrees attached by the pathogen were observed and the results were shown in Table 3 with an "Infected Index". The "Infected Index" was calculated as follows: [formula] A : Number of leaves which were killed by hard attack B : Number of leaves severely attacked
C : number of leaves slightly attacked
D : number of healthy leaves

Row | SMILES | pest or weed control at 1000 ppm [1] [%] | Degree of propagation (green algae) | Degree of propagation [2] | Degree of propagation (fungi) | Percentage of healthy seedlings at 0.25 g/box [3] [%] | width of the region of growth-inhibition (Aspergillus niger) [mm] | width of the region of growth-inhibition (Staphylococcus oureus) [mm] | width of the region of growth-inhibition (Penicillium Citrinum) [mm] | width of the region of growth-inhibition (Bacillus subtilis) [mm] | pest or weed control at 500 ppm [4] [%] | Degree of growth inhibition ([5]; 0.0125 %) | Degree of growth inhibition ([5]; 0.025 %) | Phytotoxicity (summer orange seedlings) | other results
1 | CCC(=O)Oc1ccccc1C(=O)NC=C(Cl)Cl [Compound No. 9] | 90 | - | - | - | 69.8 | 6 | 7 | 6 | 9 | 75 | 3 | 3 |  | 
2 | O=C(CCl)Oc1ccccc1C(=O)NC=C(Cl)Cl [compound 13] | 100 | - | - | - | 62 | 6 | 6 | 7 | 7 | 70.5 | 2 | 3 | Nil | pest or weed control at 1000 ppm [6]: 67.3%
3 | CCOC(=O)Oc1ccccc1C(=O)NC=C(Cl)Cl [compound 17] | 85 | + (the area of propagation is 1-25% on the slime test boards.) | - |  | 68.3 | 5 | 7 | 6 | 8 | 47.5 | 2 | 3 | Nil | pest or weed control at 1000 ppm [6]: 68.3%
4 | CC(=O)Oc1ccc(Cl)cc1C(=O)NC=C(Cl)Cl [Compound No. 7, O-acetyl-N-(2',2'-dichlorovinyl)-5-chlorosalicylamide] |  | - | - | - | 70.2 | 10 | 11 | 10 | 12 | 76.5 | 5 | 5 |  | 
5 | CCCC(=O)Oc1ccccc1C(=O)NC=C(Cl)Cl [compound 10] | 100 | - | + (the area of propagation is 1-25% on the slime test boards.) | - | 72.1 |  |  |  |  | 70 | 3 | 3 |  | Effect Index ([7]; 1,000 ppm): 88; Phytotoxicity ([8]; 1,000 ppm): Nil
6 | O=C(NC=C(Cl)Cl)c1ccccc1[O-].O=C(NC=C(Cl)Cl)c1ccccc1[O-].[Mn+2] [compound 28] |  |  |  |  |  |  |  |  |  |  |  |  | Nil | Percentage of healthy seedlings ([1]; 1,000 ppm): 100%; Effect Index ([6]; 1,000 ppm, 2 weeks after inoculation): 73.6; Percentage of healthy seedlings [3]: 73.0%; Percentage of healthy seedlings [4]: 57.0%; Degree of growth inhibition ([9]; 0.0125 %): 3; Degree of growth inhibition ([9]; 0.025 %): 3
7 | COC(=O)NC(=S)Nc1ccccc1NC(=S)NC(=O)OC [Thiophanate methyl, 1,2-bis (3-methoxy carbonyl-2-thioureid) benzene, reference compound] |  |  |  |  |  |  |  |  |  |  |  |  |  | Phytotoxicity [10]: Nil; Infected Index [11]: 14.6; Effect Index ([7]; 500 ppm): 82; Phytotoxicity ([8]; 500 ppm): Nil
8 | CC(C)C(=O)Oc1ccccc1C(=O)NC=C(Cl)Cl [compound 11] | 100 |  |  |  | 68.7 |  |  |  |  | 65.5 |  |  |  | Phytotoxicity [10]: Nil; Infected Index [11]: 10.1; Effect Index ([7]; 1,000 ppm): 81; Phytotoxicity ([8]; 1,000 ppm): Nil
